Each structure is given as a SMILES string.

This is an account of results in patent US20120202690A1, “HERBICIDAL COMPOUNDS” (SYNGENTA LIMITED, priority 2009, published 2012).

What all share (assay type): in vivo
The test system of test [1] is Alopecurus myosuroides (ALOMY). The test is described as follows: Pre-emergence biological efficacy, glasshouse, 1000 g/ha, evaluated after 13 days (100=total damage to plant; 0=no damage to plant). The note with it: Alopecurus myosuroides, 312 h, rate 1,000 g/ha, read-out: Percentage damage caused to weed species, pre-emergence, ALOMY. Summed up:
(§1)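 Glasshouse conditions were controlled at 24/16° C. day/night with a 14-hour photoperiod and 65% humidity; pots contained standard soil into which seeds had been sown, and plants were watered twice daily.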

The subject of test [2] is Solanum nigrum (SOLNI). Described as above. The note with it: Solanum nigrum, 312 h, rate 1,000 g/ha, read-out: Percentage damage caused to weed species, pre-emergence, SOLNI. Summed up:
as §1

The test system of test [3] is Ipomoea hederaceae (IPOHE). The test is described as above. The note with it: Ipomoea, 312 h, rate 1,000 g/ha, read-out: Percentage damage caused to weed species, pre-emergence, IPOHE. In outline: as §1
Test [4] deals with Setaria faberi (SETFA). Described as above. The note with it: Setaria faberi, 312 h, rate 1,000 g/ha, read-out: Percentage damage caused to weed species, pre-emergence, SETFA. Summed up: as §1
Test [5] has as its system Amaranthus retroflexus (AMARE). The description is as above. The note with it: Amaranthus retroflexus, 312 h, rate 1,000 g/ha, read-out: Percentage damage caused to weed species, pre-emergence, AMARE. In outline: as §1
The test system of test [6] is Echinochloa crus-galli (ECHCG). The description is as above. The note with it: Echinochloa crus-galli, 312 h, rate 1,000 g/ha, read-out: Percentage damage caused to weed species, pre-emergence, ECHCG. Summed up:
as §1

The subject of test [7] is Alopecurus myosuroides (ALOMY). The test is described as follows: Post-emergence biological efficacy, glasshouse, 500 or 1000 g/ha, evaluated after 13 days (100=total damage to plant; 0=no damage to plant). As to conditions: Alopecurus myosuroides, 312 h, rate 1,000 g/ha, read-out: Percentage damage caused to weed species, post-emergence, ALOMY. In outline: (§2)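 Damage is scored on pot-grown plants, sown in standard soil and sprayed after emergence, that were held post-treatment in a glasshouse (24/16° C. day/night, 14 hours light, 65% humidity).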

The subject of test [8] is Echinochloa crusgaffi (ECHCG). The description is as above. As to conditions: Echinochloa, 312 h, rate 1,000 g/ha, read-out: Percentage damage caused to weed species, post-emergence, ECHCG. In outline:
as §2

Test [9] deals with Solanum nigrum (SOLNI). Described as above. As to conditions: Solanum nigrum, 312 h, rate 1,000 g/ha, read-out: Percentage damage caused to weed species, post-emergence, SOLNI. Summed up:
as §2

The test system of test [10] is Ipomoea hederaceae (IPOHE). The test is described as above. The note with it: Ipomoea, 312 h, rate 1,000 g/ha, read-out: Percentage damage caused to weed species, post-emergence, IPOHE. Summed up:
as §2

The subject of test [11] is Setaria faberi (SETFA). The description is as above. The note with it: Setaria faberi, 312 h, rate 1,000 g/ha, read-out: Percentage damage caused to weed species, post-emergence, SETFA. In outline: as §2
For test [12], the system named is Amaranthus retroflexus (AMARE). Described as above. As to conditions: Amaranthus retroflexus, 312 h, rate 1,000 g/ha, read-out: Percentage damage caused to weed species, post-emergence, AMARE. In outline:
as §2

Turning to `COC(=O)c1nc(C2CC2)nc2c1ccn2Cc1ccccc1[N+](=O)[O-]` [Compound 8-2, 2-Cyclopropyl-4-methoxycarbonyl-7-(2-nitrophenyl-methyl)-7H-pyrrolo[2,3-d]pyrimidine], the pest or weed control at 1000 g/ha in test [1], in [2], in [3], in [4], in test [5] and in [6] was 0% in each case. Also, the pest or weed control at 1000 g/ha came to 0% in test [7]; 0% in test [8]; 20% in test [9]; 20% in test [10]; 0% in test [11]; 0% in [12].

Turning to `Cc1cc2c(C(=O)O)nc(C3CC3)nc2n1Cc1ccccc1[N+](=O)[O-]` [Compound 8-5, 4-Carboxy-2-cyclopropyl-6-methyl-7-(2-nitrophenyl-methyl)-7H-pyrrolo[2,3-d]pyrimidine], the pest or weed control at 1000 g/ha in test [1], in test [2], in [3], in [4], in test [5] and in [6] was 0% each time. Further, the pest or weed control at 1000 g/ha in test [7], in test [8], in [9], in test [10], in test [11] and in test [12] was 0% each time.

Consider `COC(=O)c1nc(C2CC2)nc2c1cc(C)n2Cc1ccccc1[N+](=O)[O-]` [Compound 8-6, 2-Cyclopropyl-4-methoxycarbonyl-6-methyl-7-(2-nitrophenyl-methyl)-7H-pyrrolo[2,3-d]pyrimidine], for which the pest or weed control at 1000 g/ha in test [1], in test [2], in [3], in test [4], in test [5] and in test [6] was 0% in each case. Further, the pest or weed control at 1000 g/ha in test [7] amounted to 0%; in test [8], 0%; in test [9], 20%; in test [10], 50%; in test [11] it was 0%; in test [12] it was 20%.

On to `O=C(O)c1nc(-c2ccc(Cl)c(F)c2)nc2c1ccn2Cc1ccccc1[N+](=O)[O-]` [Compound 8-17, 4-Carboxy-2-(4-chloro-3-fluorophenyl)-7-(2-nitropheny-methyl)-7H-pyrrolo[2,3-d]pyrimidine], for which the pest or weed control at 1000 g/ha in [1], in [2], in [3], in test [4], in [5] and in test [6] was 0% each time. For the same compound, the pest or weed control at 1000 g/ha in [7] was 0%; in test [8], 0%; in [9], 50%; in [10], 50%; in [11] it was 0%; in test [12], 20%.

Regarding `COC(=O)c1nc(-c2ccc(Cl)c(F)c2)nc2c1ccn2Cc1ccccc1[N+](=O)[O-]` [Compound 8-18, 2-(4-Chloro-3-fluorophenyl)-4-methoxycarbonyl-7-(2-nitrophenyl-methyl)-7H-pyrrolo[2,3-d]pyrimidine], the pest or weed control at 1000 g/ha in test [1], in [2], in [3], in [4], in test [5] and in test [6] was 0% each time. For the same compound, the pest or weed control at 1000 g/ha was 0% in test [7]; 0% in [8]; 30% in [9]; 20% in test [10]; 0% in [11]; 0% in test [12].

Regarding `COc1c(Cl)ccc(-c2nc(C(=O)O)c3c(C)cn(Cc4ccccc4[N+](=O)[O-])c3n2)c1F` [Compound 8-63, 4-Carboxy-2-(4-chloro-2-fluoro-3-methoxyphenyl)-5-methyl-7-(2-nitrophenyl-methyl)-7H-pyrrolo[2 ,3-d]pyrimidine], the pest or weed control at 1000 g/ha in test [1] is 0%; in [2] it was 40%; in [3], 30%; in test [4] it was 0%; in test [5], 10%; in [6] it was 0%. Further, the pest or weed control at 1000 g/ha in test [7] is 10%; in [8], 50%; in test [9] it was 80%; in test [10], 60%; in test [11] it was 20%; in test [12] it was 70%.

Consider `COc1c(Cl)ccc(-c2nc(C(=O)O)c3cc(C)n(Cc4ccccc4[N+](=O)[O-])c3n2)c1F` [Compound 8-65, 4-Carboxy-2-(4-chloro-2-fluoro-3-methoxyphenyl)-6-methyl-7-(2-nitrophenyl-methyl)-7H-pyrrolo[2,3-d]pyrimidine], for which the pest or weed control at 1000 g/ha in test [1], in test [2], in [3], in [4], in test [5] and in test [6] was 0% in each case. Also, the pest or weed control at 1000 g/ha was found to be 0% in test [7]; 0% in test [8]; 10% in test [9]; 10% in [10]; 20% in test [11]; 0% in test [12].

For `COC(=O)c1nc(-c2ccc(Cl)c(OC)c2F)nc2c1cc(C)n2Cc1ccccc1[N+](=O)[O-]` [Compound 8-66, 2-(4-Chloro-2-fluoro-3-methoxyphenyl)-4-methoxycarbonyl-6-methyl-7-(2-nitrophenyl-methyl)-7H-pyrrolo[2,3-d]pyrimidine], the pest or weed control at 1000 g/ha is 0% in [1]; 10% in test [2]; 0% in test [3]; 0% in test [4]; 10% in test [5]; 0% in test [6]. In addition, the pest or weed control at 1000 g/ha in [7] is 0%; in test [8] it was 0%; in test [9], 30%; in test [10], 10%; in test [11], 0%; in test [12], 0%.

`COc1c(Cl)ccc(-c2nc(C(=O)O)c3c(C)cn(Cc4ccc(F)cc4)c3n2)c1F` [Compound 9-63]: the pest or weed control at 1000 g/ha was 0% in test [1]; 10% in test [2]; 0% in [3]; 0% in test [4]; 20% in test [5]; 0% in test [6]. In addition, the pest or weed control at 1000 g/ha was 0% in test [7]; 0% in [8]; 60% in test [9]; 40% in test [10]; 0% in test [11]; 20% in test [12].
